Assay results as given in ChEMBL document CHEMBL1909046, “DrugMatrix in vitro pharmacology data”.

Columns and labels:
Substance-K receptor = target: T1, Substance-K receptor (Homo sapiens, UniProt P21452); assay type: cell membranes, CHO, Membrane; further: in other assays of this panel Not Active means under 50% inhibition at 10 µM
T1 sequence (P21452 whole entry): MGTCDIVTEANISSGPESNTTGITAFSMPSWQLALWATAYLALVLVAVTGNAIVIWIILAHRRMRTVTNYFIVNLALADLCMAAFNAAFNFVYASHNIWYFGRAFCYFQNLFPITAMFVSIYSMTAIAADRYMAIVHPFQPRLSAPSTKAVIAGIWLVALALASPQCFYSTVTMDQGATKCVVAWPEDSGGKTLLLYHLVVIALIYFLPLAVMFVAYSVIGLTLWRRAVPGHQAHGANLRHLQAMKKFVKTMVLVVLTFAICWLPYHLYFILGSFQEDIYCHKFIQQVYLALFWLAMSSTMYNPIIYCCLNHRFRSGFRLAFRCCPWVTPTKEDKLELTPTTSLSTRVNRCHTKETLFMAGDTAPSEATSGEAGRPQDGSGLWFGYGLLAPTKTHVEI

Nitric oxide synthase 1 = Nitric oxide synthase 1 (Rattus norvegicus, UniProt P29476); assay type: tissue-based, Cerebellum; further: in other assays of this panel Not Active means under 50% inhibition at 10 µM
[1] = DRUGMATRIX: Calcium Channel Type L, Dihydropyridine radioligand binding (ligand: [3H] Nitrendipine); assay type: cell membranes, Rattus norvegicus, Wistar, Cerebral cortex, Membrane; details: Not Active = under 50% inhibition at 10 µM
Interstitial collagenase = target: T2, Interstitial collagenase (Homo sapiens, UniProt P03956); experiment: biochemical; assay type: tissue-based, Rheumatoid synovial fibroblasts;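 further: MMP-1 enzyme inhibition assay using a peptide substrate; in other assays of this panel Not Active means under 50% inhibition at 10 µM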
T2 sequence (P03956 whole entry): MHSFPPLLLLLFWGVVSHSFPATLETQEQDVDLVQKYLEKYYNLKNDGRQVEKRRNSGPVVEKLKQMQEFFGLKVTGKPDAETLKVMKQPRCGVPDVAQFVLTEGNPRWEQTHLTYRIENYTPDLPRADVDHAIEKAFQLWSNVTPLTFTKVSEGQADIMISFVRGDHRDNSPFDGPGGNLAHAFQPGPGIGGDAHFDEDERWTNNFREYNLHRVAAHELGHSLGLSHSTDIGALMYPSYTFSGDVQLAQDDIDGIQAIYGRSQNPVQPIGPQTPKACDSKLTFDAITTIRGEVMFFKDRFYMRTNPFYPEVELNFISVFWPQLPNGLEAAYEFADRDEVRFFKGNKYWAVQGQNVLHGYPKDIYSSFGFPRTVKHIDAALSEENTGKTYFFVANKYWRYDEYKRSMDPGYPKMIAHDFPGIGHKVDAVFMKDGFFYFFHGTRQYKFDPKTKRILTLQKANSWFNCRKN

Thromboxane-A synthase = target: T3, Thromboxane-A synthase (Homo sapiens, UniProt P24557); experiment: biochemical; assay type: tissue-based, Platelet; details: platelet;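 further: enzyme inhibition assay with PGH2 supplied as substrate; in other assays of this panel Not Active means under 50% inhibition at 10 µM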
T3 sequence (P24557 whole entry): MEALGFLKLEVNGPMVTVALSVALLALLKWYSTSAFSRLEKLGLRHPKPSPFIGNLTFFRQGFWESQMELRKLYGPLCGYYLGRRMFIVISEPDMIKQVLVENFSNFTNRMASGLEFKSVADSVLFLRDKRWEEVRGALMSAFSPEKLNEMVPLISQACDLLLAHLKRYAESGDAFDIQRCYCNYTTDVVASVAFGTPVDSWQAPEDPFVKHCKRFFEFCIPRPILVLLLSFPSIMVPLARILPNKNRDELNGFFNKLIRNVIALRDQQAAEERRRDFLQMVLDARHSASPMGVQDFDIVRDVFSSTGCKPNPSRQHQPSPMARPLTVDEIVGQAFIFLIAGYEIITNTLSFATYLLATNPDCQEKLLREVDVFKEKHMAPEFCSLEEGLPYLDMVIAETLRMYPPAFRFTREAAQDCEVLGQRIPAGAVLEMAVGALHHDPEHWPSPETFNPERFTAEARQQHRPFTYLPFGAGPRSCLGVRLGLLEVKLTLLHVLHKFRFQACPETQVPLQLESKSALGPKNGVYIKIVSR

[2] = DRUGMATRIX: beta-Lactamase enzyme inhibition (substrate: Nitrocefin); set-up: species or system Bacillus cereus; details: Not Active = under 50% inhibition at 10 µM
Neutrophil elastase = target: T4, Neutrophil elastase (Homo sapiens, UniProt P08246); assay type: tissue-based
T4 sequence (P08246 whole entry): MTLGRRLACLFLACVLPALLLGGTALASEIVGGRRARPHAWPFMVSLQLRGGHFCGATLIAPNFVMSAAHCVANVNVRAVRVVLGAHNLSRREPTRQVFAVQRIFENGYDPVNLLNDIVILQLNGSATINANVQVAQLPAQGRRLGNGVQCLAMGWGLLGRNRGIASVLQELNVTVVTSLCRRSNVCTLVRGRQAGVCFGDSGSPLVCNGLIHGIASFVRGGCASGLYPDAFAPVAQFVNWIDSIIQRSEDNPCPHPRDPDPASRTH

Nitric oxide synthase 1, sequence (P29476 whole entry): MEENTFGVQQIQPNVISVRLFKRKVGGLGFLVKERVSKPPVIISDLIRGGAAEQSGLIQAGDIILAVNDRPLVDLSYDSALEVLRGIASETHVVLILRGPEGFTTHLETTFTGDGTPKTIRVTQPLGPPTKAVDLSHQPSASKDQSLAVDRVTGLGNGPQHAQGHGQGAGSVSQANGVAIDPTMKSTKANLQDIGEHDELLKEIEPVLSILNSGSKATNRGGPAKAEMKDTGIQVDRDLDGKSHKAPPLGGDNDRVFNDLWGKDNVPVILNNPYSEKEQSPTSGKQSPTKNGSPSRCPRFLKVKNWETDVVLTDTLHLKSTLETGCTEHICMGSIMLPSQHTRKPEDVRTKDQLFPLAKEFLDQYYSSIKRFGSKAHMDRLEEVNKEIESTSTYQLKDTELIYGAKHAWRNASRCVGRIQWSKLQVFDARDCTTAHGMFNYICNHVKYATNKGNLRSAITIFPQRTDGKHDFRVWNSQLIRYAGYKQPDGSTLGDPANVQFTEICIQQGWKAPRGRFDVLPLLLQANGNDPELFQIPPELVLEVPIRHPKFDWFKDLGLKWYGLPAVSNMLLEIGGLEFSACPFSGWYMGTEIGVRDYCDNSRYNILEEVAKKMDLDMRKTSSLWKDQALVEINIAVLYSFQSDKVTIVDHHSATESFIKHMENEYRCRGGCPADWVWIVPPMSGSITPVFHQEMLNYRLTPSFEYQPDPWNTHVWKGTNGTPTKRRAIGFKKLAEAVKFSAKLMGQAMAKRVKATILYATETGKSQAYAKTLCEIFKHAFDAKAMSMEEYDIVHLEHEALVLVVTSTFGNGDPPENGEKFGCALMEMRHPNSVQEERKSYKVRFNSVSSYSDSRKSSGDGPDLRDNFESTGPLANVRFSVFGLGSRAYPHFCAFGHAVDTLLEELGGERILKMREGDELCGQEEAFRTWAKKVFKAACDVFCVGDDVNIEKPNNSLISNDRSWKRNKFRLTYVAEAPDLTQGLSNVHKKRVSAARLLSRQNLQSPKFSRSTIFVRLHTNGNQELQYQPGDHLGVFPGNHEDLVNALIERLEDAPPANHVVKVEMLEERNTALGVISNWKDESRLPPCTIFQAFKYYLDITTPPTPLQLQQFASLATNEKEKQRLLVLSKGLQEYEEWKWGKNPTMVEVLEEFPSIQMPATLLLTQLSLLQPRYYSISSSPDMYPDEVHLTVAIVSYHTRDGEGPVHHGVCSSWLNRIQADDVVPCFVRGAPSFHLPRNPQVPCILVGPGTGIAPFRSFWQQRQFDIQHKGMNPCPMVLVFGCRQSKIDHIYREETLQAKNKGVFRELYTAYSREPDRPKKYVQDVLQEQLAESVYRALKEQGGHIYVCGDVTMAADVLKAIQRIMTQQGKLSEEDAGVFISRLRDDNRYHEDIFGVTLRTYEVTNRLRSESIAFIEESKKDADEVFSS

Compound	IC50 (Substance-K receptor; read-out: IC50)	Ki (Substance-K receptor; read-out: Ki)	IC50 (Nitric oxide synthase 1)	IC50 [1]	Ki [1]	IC50 (Interstitial collagenase)	IC50 (Thromboxane-A synthase)	IC50 [2]	Ki [2]	IC50 (Neutrophil elastase)	IC50 (Substance-K receptor; cho)	Ki (Substance-K receptor; cho)	Ki (Nitric oxide synthase 1)	Ki (Interstitial collagenase)	Ki (Thromboxane-A synthase)	Ki (Neutrophil elastase)
CN1C[C@H](CNC(=O)OCc2ccccc2)C[C@@H]2c3cccc4c3c(cn4C)C[C@H]21 [METERGOLINE]	4070 nM	1360 nM	Not Active	Not Active	Not Active	Not Active	Not Active	Not Active	Not Active	Not Active						
O=[As][O-].[Na+] [SODIUM ARSENITE]			Not Active	Not Active	Not Active	Not Active	Not Active	Not Active	Not Active	Not Active	Not Active					
CC(=O)O[C@]1(C(C)=O)CC[C@H]2[C@@H]3C[C@H](C)C4=CC(=O)CC[C@]4(C)[C@H]3CC[C@@]21C [MEDROXYPROGESTERONE ACETATE]			Not Active	Not Active	Not Active	Not Active	Not Active	Not Active	Not Active	Not Active	Not Active					
CCN1CCCC1CNC(=O)c1cc(S(N)(=O)=O)ccc1OC (stereo not given) [SULPIRIDE]			Not Active	Not Active	Not Active	Not Active	Not Active	Not Active	Not Active	Not Active	Not Active					
CC(O)C(=O)O (stereo not given) [LACTIC ACID]			Not Active	Not Active	Not Active	Not Active	Not Active	Not Active	Not Active	Not Active	Not Active					
CC(Cl)(Cl)Cl [TRICHLOROETHANE]			Not Active	Not Active	Not Active	Not Active	Not Active	Not Active	Not Active	Not Active	Not Active					
CCC(C)(C)C(=O)O[C@H]1C[C@@H](C)C=C2C=C[C@H](C)[C@H](CC[C@@H]3C[C@@H](O)CC(=O)O3)[C@H]21 [SIMVASTATIN]			Not Active	Not Active	Not Active	Not Active	Not Active	Not Active	Not Active	Not Active	Not Active					
Cc1ccnc(NS(=O)(=O)c2ccc(N)cc2)n1 [SULFAMERAZINE]			Not Active	Not Active	Not Active	Not Active	Not Active	Not Active	Not Active	Not Active	Not Active					
CCN(CC)N=O [N-NITROSODIETHYLAMINE]			Not Active	Not Active	Not Active	Not Active	Not Active	Not Active	Not Active	Not Active	Not Active					
CC#C[C@]1(O)CC[C@H]2[C@@H]3CCC4=CC(=O)CCC4=C3[C@@H](c3ccc(N(C)C)cc3)C[C@@]21C [MIFEPRISTONE]			Not Active	Not Active	Not Active	Not Active	Not Active	Not Active	Not Active	Not Active	Not Active					
LEAD(IV) ACETATE			Not Active	Not Active	Not Active	Not Active	Not Active	Not Active	Not Active	Not Active	Not Active	Not Active	Not Active	Not Active	Not Active	Not Active
